Values of other authors as cited in patent US20110237609A1, “ANTIFOLATE COMPOSITIONS” (Chelsea Therapeutics, Inc., priority 2010, published 2011).

Tests used:
[1] = in words; b190 refers to US 20090253720
[2] = in words, background statement

bioavailability [2]	SMILES	solubility characteristics [1]
	C=C(CC(NC(=O)c1ccc(CCc2ccc3nc(N)nc(N)c3c2)cc1)C(=O)O)C(=O)O (stereo not drawn)	improved solubility characteristics in comparison to the dioic acid form
low bioavailability	C=C(CC(NC(=O)c1ccc(CCc2ccc3nc(N)nc(N)c3c2)cc1)C(=O)O)C(=O)O (racemic) [compound of Formula (9), 2-{-4-[2-(2,4-diamino-quinazolin-6-yl)-ethyl]-benzoylamino}-4-methylene-pentanedioic acid]	low solubility
